Test results as given in ChEMBL document CHEMBL1142591, “Scalusamides A-C, new pyrrolidine alkaloids from the marine-derived fungus Penicillium citrinum” (2005).
Converted amounts (≈) assume the structure as drawn.

How the values were obtained:
Micrococcus luteus = experiment: Antibacterial activity against Micrococcus luteus; assay type: functional
Cryptococcus neoformans = experiment: Antifungal activity against Cryptococcus neoformans; assay type: functional

C/C=C/CCCCC(=O)C(C)C(=O)N1CCC[C@@H]1CO (some centres not stated) [SCALUSAMIDE A]
MIC (Micrococcus luteus): 33.3 µg/mL (≈ 118 µM)
MIC (Cryptococcus neoformans): 16.7 µg/mL (≈ 59.3 µM)
